In data set [1] the target is hERG current (Homo sapiens (Human), UniProt Q12809). Briefly: hERG current blocking test. A general note: hERG is a cardiac potassium channel; its block is linked to QT prolongation.
Method: (§1) The test compounds were added to cultured hERG (human Ether-a-go-go Related Gene) gene stably expressing CHO cell line cells to achieve 0.27 to 100 μM.
Data set [2] has as its system ES-2 cells. Briefly: Cell growth suppression experiment. The data set is classed as cell-based. The conditions noted are these: Homo sapiens, 48 h, cultured for 2 days, read-out: IC50 (cell growth suppression, ranking). On the procedure: ES-2 cells were obtained from the American Type Culture Collection (ATCC). These cells were cultured at 37° C. in the presence of 5% CO2 in a 10% fetal bovine serum, […] penicillin/streptomycin containing McCoy's 5a medium.
500 cells were seeded for each well in a 384-well plate, and the evaluated compound was added so that the final concentration of DMSO would be 0.1% to culture the cells for 2 days. After completion of the culture, the cell viability rate was calculated using CellTiter-Glo® 3D Reagent (Promega, G968B).

The target of data set [3] is CYP3A4 (Homo sapiens (Human), UniProt P08684). Nature of the data set: CYP3A4 MBI and enzyme inactivation clearance evaluation. The data set is classed as in vitro ADME. The conditions noted are these: by pre-incubation with NADPH; human liver microsome; MBI action when 2-fold or greater. As for the experimental part: The effect and mode of inhibition of the test compound on CYP3A4 were evaluated using a human liver microsome as an enzyme source and midazolam or testosterone as a substrate. […] The IC50 value was calculated from a concentration plot.
A general note: Liver microsomes are vesicles of endoplasmic reticulum, rich in cytochrome P450 enzymes.

The target of data set [4] is CHK1 (Homo sapiens (Human), UniProt O14757). Nature of the data set: CHK1 inhibitory activity test (IMAP TR-FRET). It counts as biochemical. As for the experimental part: IMAP TR-FRET Screening Express Kit (R8160) was obtained from Molecular Devices. […] FAM-PKAtide (R7255, Molecular Devices) and FAM-Phospho-PKAtide (R7304, Molecular Devices) were admixed after dilution, and calibration standard systems for phosphorylation levels from 0 to 100% were created. 5 μL of a compound dissolved in a 0.4% DMSO solution was added to a 384 well plate. A compound study group to which 5 μL of each of CHK1, CHK1tide, and ATP was added, and a standard group to which 20 μL of standard was added were created, and subjected to a kinase reaction for 3 hours at 30° C. Subsequently, 60 μL of Binding Reagent (80% Buffer A, 20% Buffer B, 1:600 Binding Reagent, 1:400 Tb-Donor) was added for a binding reaction for 2 hours at room temperature.
For orientation: Time-resolved FRET reads energy transfer from a long-lived donor to a nearby acceptor.

Data set [5] concerns the target hERG (Homo sapiens (Human), UniProt Q12809). Nature of the data set: in vitro. The following applies: CHO cells stably expressing hERG.
Method: as §1
Data set [6] relates to neutrophil count. Briefly: Measurement of neutrophil count using tumor-bearing mice transplanted with ES-2 cells (Test Example 17). The following applies: 30 mg/kg, 14 days, 2 times/week; 96 hours after final administration. The data set is classed as in vivo. As for the experimental part:
Blood was collected 96 hours after the final administration to measure the neutrophil count.
Ratio of residual neutrophils (%)=(neutrophil count of administration group 96 hours after administration)/(neutrophil count of control administration group 96 hours after administration)×100

For orientation: pIC50 means −log10 of the IC50, conventionally taken in molar units. A word on the inhibition: it is the percentage by which the read-out fell short of the control.

pIC50: −log10 of the molar value. “Also recorded” adds a separate entry of the source.

Chain of CHK1 (O14757 whole entry): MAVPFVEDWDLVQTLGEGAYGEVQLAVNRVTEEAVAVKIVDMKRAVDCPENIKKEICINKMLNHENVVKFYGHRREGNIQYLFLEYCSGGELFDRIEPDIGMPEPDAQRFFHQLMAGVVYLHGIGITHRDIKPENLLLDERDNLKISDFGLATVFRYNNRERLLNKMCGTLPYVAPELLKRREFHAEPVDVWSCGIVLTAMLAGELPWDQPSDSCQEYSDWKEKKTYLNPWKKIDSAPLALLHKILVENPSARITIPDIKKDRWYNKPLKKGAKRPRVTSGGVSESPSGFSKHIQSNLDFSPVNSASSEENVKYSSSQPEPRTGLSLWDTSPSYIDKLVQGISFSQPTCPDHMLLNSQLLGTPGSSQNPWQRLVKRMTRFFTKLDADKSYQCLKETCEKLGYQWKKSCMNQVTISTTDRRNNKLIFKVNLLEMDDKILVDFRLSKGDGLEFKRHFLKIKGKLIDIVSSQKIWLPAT
Chain of hERG current (Q12809 whole entry): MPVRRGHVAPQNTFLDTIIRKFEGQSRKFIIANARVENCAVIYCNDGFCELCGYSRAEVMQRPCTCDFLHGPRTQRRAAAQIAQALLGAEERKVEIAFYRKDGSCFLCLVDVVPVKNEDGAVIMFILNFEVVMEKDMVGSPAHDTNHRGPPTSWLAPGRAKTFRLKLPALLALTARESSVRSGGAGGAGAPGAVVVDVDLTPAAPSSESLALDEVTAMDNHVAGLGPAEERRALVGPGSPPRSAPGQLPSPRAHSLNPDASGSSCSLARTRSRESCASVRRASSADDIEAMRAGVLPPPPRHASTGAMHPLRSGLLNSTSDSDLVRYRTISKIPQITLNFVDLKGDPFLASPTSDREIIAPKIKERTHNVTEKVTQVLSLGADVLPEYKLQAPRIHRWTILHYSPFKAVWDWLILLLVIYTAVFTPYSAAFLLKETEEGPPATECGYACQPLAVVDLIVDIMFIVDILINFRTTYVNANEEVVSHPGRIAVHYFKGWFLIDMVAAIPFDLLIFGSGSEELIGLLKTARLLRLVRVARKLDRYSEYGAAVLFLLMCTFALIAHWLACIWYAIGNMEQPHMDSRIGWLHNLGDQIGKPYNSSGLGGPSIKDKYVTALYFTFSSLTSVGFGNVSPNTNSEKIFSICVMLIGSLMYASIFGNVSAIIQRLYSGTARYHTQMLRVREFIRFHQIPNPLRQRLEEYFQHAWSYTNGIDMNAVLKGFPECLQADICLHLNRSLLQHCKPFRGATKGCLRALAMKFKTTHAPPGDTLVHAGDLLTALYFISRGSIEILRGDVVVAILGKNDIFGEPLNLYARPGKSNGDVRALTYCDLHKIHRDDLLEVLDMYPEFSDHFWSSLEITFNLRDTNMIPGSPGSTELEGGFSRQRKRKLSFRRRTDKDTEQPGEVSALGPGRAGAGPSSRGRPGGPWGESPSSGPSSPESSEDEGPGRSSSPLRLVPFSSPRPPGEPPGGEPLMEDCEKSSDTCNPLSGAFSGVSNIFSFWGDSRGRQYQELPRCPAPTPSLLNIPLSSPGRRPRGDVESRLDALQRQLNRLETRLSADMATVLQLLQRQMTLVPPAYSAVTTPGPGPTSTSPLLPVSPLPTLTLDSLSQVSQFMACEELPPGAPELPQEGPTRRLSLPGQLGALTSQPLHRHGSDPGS
Chain of hERG (Q12809 whole entry): as above
Chain of CYP3A4 (P08684 whole entry): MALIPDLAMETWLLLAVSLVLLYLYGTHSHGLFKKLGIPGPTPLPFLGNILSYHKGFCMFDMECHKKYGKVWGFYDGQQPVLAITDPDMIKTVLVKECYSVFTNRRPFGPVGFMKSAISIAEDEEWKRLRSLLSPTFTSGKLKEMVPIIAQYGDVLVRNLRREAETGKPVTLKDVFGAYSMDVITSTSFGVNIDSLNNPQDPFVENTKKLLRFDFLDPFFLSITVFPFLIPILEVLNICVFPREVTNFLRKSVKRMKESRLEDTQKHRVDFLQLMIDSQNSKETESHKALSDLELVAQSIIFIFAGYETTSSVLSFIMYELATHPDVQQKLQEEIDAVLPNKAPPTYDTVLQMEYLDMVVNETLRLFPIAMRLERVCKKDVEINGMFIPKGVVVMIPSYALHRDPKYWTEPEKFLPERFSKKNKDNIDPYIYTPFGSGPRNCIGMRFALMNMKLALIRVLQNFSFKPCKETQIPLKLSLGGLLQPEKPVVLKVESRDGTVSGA

`COc1nccc(OCC2(CO)CNC2)c1-c1cc(Nc2cnc(C#N)cn2)n[nH]1` [Example 8, 5-{[5-(4-{[3-(hydroxymethyl)azetidin-3-yl]methoxy}-2-methoxypyridin-3-yl)-1H-pyrazol-3-yl]amino}pyrazine-2-carbonitrile]: in data set [1] (IC50 of hERG divided by IC50 of CHK1 inhibition of Test Example 1), the hERG/CHK1 is reported as more than 1000000. The negative-log IC50 (pIC50) in data set [1] (read-out: hERG inhibition IC50, hERG stably expressing CHO cells, Qube384) was less than 4.00; in data set [2], 7.00 to 7.52; in data set [4] it was more than 10.00. Moreover, the “Factor of change in IC50 value” in data set [3] is “Not Detected”. Also, in data set [4] (compared with prexasertib), the “effect of suppressing CHK1 activity (in words)” value is reported as “more potent effect of suppressing CHK1 activity than prexasertib; also recorded: especially potently suppressing CHK1 activity”. In data set [4] (read-out: CHK1 inhibition % at 0.1 nM), the inhibition at 0.0001 µM came to 51%. Also, the selectivity ratio in data set [5] is not below 100000.
Turning to `Nc1ccn([C@@H]2O[C@H](CO)[C@@H](O)C2(F)F)c(=O)n1` [Gemcitabine], in data set [6], the “Ratio of residual neutrophils” value was 39%.

(Values after patent US11564920B2, “5-heteroaryl-1H-pyrazol-3-amine derivative” (Sumitomo Pharma Co., Ltd., priority 2020, dated 2023).)
